According to article PMC10489644, “In Vitro Evaluation of the Potential for Drug Interactions by Salidroside” (Nutrients, 2023):
Read-outs that look alike come from different tables or passages of the source.

Columns and labels:
CYP2C9 = CYP2C9 (Homo sapiens, UniProt P11712); test: Time-dependent inhibition (IC50 shift) in human liver microsomes
Method: (§1) Incubation without 30 min pre-incubation, 178.5 µL of liver microsomes working was pre-incubated in a 37 °C water bath for 30 min. After the pre-incubation, 1.5 μL of test compound or control compound working solution, 60 μL of substrate working solution, and 60 μL of NADPH working solution were added; then, the reaction mixture was mixed by pipetting up and down and then incubated at 37 °C for 10 min. Incubation with 30 min pre-incubation. Next, 1.5 μL of test compound or control compound working solutions and 60 μL of NADPH working solution were added into 178.5 μL of liver microsome working solution, then the reaction mixture was mixed by pipetting up and down and then pre-incubated at 37 °C for 30 min. […]
(§2) For competitive and time-dependent CYP inhibition, the peak area ratios (PAR) of analyte/internal standard were used to semi-quantitatively determine the concentration of acetaminophen (CYP1A2 activity), 4’-hydroxydiclofenac (CYP2C9), 4’-hydroxymephenytoin (CYP2C19), dextrorphan (CYP2D6), 1’-hydroxymidazolam (CYP3A4), 6β-hydroxytestosterone (CYP3A4), hydroxybupropion (CYP2B6), and N-desethylamodiaquine (CYP2C8), with terfenadine as the internal standard by LC-MS/MS method. The HPLC-MS system utilized an Acquity UPLC system and Sciex API 4000 mass spectrometer in ESI positive mode, with quantitation employing MRM. […]

CYP1A2 [1] = molecular target: T1, CYP1A2 (Homo sapiens, UniProt P05177); test: as above; assay type: in vitro ADME
T1 construct: Mixed human liver microsomes were purchased from BioreclamationIVT; tissue BioreclamationIVT; host or cells: mixed-donor pool of human liver microsomes (Lot ZZQ)
T1 sequence (P05177 1-516): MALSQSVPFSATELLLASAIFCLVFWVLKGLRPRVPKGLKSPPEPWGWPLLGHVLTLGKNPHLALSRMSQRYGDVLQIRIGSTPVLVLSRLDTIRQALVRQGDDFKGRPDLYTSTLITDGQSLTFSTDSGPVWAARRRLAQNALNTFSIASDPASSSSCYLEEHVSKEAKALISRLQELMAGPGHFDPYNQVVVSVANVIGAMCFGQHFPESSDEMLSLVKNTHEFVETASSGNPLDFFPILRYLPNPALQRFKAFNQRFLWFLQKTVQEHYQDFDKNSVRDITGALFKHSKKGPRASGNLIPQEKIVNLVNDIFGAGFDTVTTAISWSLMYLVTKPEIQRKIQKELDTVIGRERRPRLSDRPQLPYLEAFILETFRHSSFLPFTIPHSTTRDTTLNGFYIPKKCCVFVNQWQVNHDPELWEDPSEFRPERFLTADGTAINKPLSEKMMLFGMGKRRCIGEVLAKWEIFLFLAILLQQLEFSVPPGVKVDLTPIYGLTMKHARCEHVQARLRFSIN
Method: Incubation without 30 min pre-incubation, 178.5 µL of liver microsomes working was pre-incubated in a 37 °C water bath for 30 min. After the pre-incubation, 1.5 μL of test compound or control compound working solution, 60 μL of substrate working solution, and 60 μL of NADPH working solution were added; then, the reaction mixture was mixed by pipetting up and down and then incubated at 37 °C for 10 min. Incubation with 30 min pre-incubation. Next, 1.5 μL of test compound or control compound working solutions and 60 μL of NADPH working solution were added into 178.5 μL of liver microsome working solution, then the reaction mixture was mixed by pipetting up and down and then pre-incubated at 37 °C for 30 min. After the pre-incubation, 60 μL of substrate working solution was added, then the reaction mixture was mixed by pipetting up and down and then incubated at 37 °C for 10 min. Following the incubation, 300 μL of quenching solution was added into the corresponding wells to terminate the reaction. All the above samples were vortexed for 1 min and centrifuged at 4000 rpm, 4 °C for 15 min. After centrifugation, the supernatant was removed for further LC-MS/MS analysis.
(§3) For competitive and time-dependent CYP inhibition, the peak area ratios (PAR) of analyte/internal standard were used to semi-quantitatively determine the concentration of acetaminophen (CYP1A2 activity), 4’-hydroxydiclofenac (CYP2C9), 4’-hydroxymephenytoin (CYP2C19), dextrorphan (CYP2D6), 1’-hydroxymidazolam (CYP3A4), 6β-hydroxytestosterone (CYP3A4), hydroxybupropion (CYP2B6), and N-desethylamodiaquine (CYP2C8), with terfenadine as the internal standard by LC-MS/MS method. The HPLC-MS system utilized an Acquity UPLC system and Sciex API 4000 mass spectrometer in ESI positive mode, with quantitation employing MRM. Samples were injected onto an Atlantis T3 5 μM column (2.1 x 50 mm). […]

CYP2C8 [2] = molecular target: T2, CYP2C8 (Homo sapiens, UniProt P10632); test: CYP direct inhibition in human liver microsomes
T2 sequence (P10632 1-490): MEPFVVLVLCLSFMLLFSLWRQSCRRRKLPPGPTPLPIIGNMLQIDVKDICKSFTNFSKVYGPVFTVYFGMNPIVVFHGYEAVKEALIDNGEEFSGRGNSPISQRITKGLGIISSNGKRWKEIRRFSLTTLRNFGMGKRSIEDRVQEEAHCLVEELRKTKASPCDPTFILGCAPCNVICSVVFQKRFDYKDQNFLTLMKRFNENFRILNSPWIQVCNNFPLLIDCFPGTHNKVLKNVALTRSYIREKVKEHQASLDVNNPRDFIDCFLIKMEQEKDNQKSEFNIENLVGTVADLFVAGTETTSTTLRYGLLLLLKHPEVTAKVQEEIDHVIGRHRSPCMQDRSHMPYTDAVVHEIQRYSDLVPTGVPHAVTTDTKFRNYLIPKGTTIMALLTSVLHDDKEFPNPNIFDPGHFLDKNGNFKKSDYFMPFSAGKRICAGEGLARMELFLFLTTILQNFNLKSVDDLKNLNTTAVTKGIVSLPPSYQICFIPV
Method: (§4) Test compound/controls working solution or DMSO were added in 238.5 µL of liver microsomes working solution, mixed well by pipetting several times and pre-incubated in a 37 °C shaking water bath for 5 min. Following the pre-incubation, 60 µL of NADPH working solution were added, mixed well by pipetting several times, and incubated in a 37 °C shaking water bath for 10 min. Following the incubation, 300 µL of quenching solution were immediately added and vortexed for ~20 s to mix. All samples were centrifuged at 4000 rpm for 15 min at 4 °C and then the supernatant was transferred for LC-MS/MS analysis. IC50 values were determined by the Hill slope equation using Graph Pad Prism.
as §3

CYP2D6 [3] = molecular target: T3, CYP2D6 (Homo sapiens, UniProt P10635); details: microsomes
T3 sequence (P10635 whole entry): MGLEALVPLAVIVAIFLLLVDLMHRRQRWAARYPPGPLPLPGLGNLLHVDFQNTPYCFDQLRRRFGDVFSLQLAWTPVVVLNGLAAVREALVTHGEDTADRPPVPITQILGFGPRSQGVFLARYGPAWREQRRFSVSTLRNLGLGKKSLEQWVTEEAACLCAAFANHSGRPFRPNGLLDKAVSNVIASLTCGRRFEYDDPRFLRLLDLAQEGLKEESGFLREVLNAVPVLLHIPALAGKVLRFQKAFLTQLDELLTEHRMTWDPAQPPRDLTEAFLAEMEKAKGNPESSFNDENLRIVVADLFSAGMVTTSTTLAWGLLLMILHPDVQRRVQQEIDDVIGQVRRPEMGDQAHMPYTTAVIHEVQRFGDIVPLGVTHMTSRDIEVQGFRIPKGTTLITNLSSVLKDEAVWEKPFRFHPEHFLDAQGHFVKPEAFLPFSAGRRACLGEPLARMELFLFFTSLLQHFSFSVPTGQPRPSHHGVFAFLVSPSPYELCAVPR
Method: as §1, §2

[4] = Estimation of maximum human plasma concentration
Method: An estimation of the maximum plasma concentration of salidroside in humans was made from the pharmacokinetics in rats after oral dosing and the recommended human daily dose of salidroside of 60 mg (two 30 mg capsules). Male Sprague–Dawley rats were dosed either with IV or orally at 12 mg/kg (N = 6/group). Salidroside was moderately cleared (21 mL/min/kg) and well absorbed orally.

CYP2C19 [5] = molecular target: T4, CYP2C19 (Homo sapiens, UniProt P33261); test: CYP direct inhibition in human liver microsomes
T4 sequence (P33261 whole entry): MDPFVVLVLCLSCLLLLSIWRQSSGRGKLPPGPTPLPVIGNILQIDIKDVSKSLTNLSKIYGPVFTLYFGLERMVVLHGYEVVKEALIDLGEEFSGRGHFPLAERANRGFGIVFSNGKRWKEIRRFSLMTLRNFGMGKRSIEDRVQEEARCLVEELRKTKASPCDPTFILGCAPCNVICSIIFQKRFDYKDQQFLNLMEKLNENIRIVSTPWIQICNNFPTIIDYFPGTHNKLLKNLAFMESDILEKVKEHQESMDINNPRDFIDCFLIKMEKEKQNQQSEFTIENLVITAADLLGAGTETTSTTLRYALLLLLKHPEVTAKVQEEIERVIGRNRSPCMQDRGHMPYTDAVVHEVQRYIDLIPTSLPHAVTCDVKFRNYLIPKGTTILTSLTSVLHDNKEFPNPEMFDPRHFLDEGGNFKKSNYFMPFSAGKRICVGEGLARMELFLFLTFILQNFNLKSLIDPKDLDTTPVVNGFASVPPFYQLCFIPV
Method: as §4, §3

CYP2C19 [6] = molecular target: T4, CYP2C19; test: Time-dependent inhibition (IC50 shift) in human liver microsomes
Method: as §1, §2

CYP2D6 [7] = molecular target: T3, CYP2D6; test: biochemical
Method: as §4, §3

CYP2C8 [8] = molecular target: T2, CYP2C8; details: microsomes
Method: as §1, §2

[9] = set-up: method as in PMID 29796228; details: rat, cited from earlier work
in vitro = details: Sprague-Dawley (SD), rat, plasma, pH 7.4
Method: The experiment was performed using equilibrium dialysis with the two compartments separated by a semi-permeable membrane. Phosphate-buffered saline (PBS) (pH 7.4) was added to one side of the membrane and the plasma solution to the other side. After equilibration (5 h at 37 °C), samples were taken from both sides of the membrane, transferred to a new plate, and were matrix-matched by the addition of an appropriate amount of PBS to the plasma samples and blank plasma to the PBS samples. […] Incubations were performed in duplicate. Warfarin served as a control. The fraction unbound in plasma (fu,p) = Cb/Cp, where Cb represents the concentration in buffer and Cp the concentration in plasma at 5 h.

CYP3A4/5 = details: microsomes
Method: as §1, §2

CYP1A2 [10] = test: in vitro; details: human; for Mean Fold Induction: 48 h
Method: The incubation solution was aspirated and replaced with incubation solution containing the same concentrations of salidroside, vehicle, or positive inducers for an additional 24 h. The total treatment period was 48 h. After the treatment period of 48 h, the incubation solution was aspirated. Hepatocytes were washed twice with pre-warmed HBSS containing 10 mM HEPES (HBSS I) and then the remaining solution was aspirated. Hepatocytes were washed once with pre-warmed HBSS I and incubated with 140 μL of RLT (lysis buffer from RNeasy 96 Kit) supplemented with 1% β-mercaptoethanol. Plates were then stored at −70 °C in a freezer until RNA analysis. Before RNA extraction, the frozen plate was thawed, and cell lysates were transferred to 96-well plates. RNA isolation was performed using a QIAcube RNA extraction system. Reverse transcription was performed to obtain cDNA. Quantification of the selective genes by real-time quantitative polymerase chain reaction (qPCR) was performed with TaqMan universal PCR Master Mix on the Bio-rad CFX384 TouchTM Real-Time PCR System. The relative change in the mRNA level of the selected target genes induced by each test compound was expressed in relation to the vehicle control sample, and fold changes in gene expression were determined by the ΔΔCt method.

CYP2C9, sequence (P11712 whole entry): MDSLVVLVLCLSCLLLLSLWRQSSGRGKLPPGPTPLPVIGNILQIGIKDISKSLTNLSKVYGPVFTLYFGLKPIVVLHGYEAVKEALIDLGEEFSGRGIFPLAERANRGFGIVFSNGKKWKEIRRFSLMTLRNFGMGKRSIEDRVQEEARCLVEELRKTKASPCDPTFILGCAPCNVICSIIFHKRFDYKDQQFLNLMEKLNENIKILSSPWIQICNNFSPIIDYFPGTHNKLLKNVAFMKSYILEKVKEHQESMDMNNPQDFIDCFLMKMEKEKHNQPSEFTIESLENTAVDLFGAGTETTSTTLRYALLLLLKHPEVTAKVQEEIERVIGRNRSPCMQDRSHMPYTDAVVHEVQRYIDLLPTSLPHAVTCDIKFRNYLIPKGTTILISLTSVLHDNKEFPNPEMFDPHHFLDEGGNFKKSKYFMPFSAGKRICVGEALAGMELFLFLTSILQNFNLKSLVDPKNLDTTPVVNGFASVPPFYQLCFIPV

SMILES: OC[C@H]1O[C@@H](OCCc2ccc(O)cc2)[C@H](O)[C@@H](O)[C@@H]1O [Salidroside]
- IC50 (CYP2C9): > 50 µM
- IC50 Shift (CYP1A2 [1]; IC50 without/with preincubation, >[…] positive for TDI): no shift
- IC50 (CYP1A2 [1]; probe phenacetin, positive control not given, likely furafylline): > 50 µM
- IC50 (CYP1A2 [1]; read-out: IC50 after 30 min Preincubation with NADPH, probe phenacetin, positive control not given, likely furafylline): > 50 µM
- IC50 (CYP2C8 [2]): > 50 µM
- IC50 Shift (CYP2D6 [3]): no shift
- Cmax ([4]; 60 mg PO daily (~1 mg/kg), scaled from rat, read-out: predicted human total Cmax (predicted plasma concentration)): < 2 µM
- predicted human unbound Cmax ([4]; 60 mg daily, Cmax x fu,plasma): ~ 1.18 μM
- IC50 (CYP2C19 [5]): > 50 µM
- IC50 (CYP2C19 [6]): > 50 µM
- IC50 (CYP2D6 [7]): > 50 µM
- IC50 Shift (CYP2C8 [8]): no shift
- clearance ([9]; 12 mg/kg IV): 21 mL/min/kg
- oral bioavailability (fb) ([9]; 12 mg/kg oral): 32.1%
- observed Cmax ([9]; oral 12 mg/kg): 4300 ng/mL
- Cmax ([9]; oral 12 mg/kg, read-out: observed Cmax): 14.3 µM
- fraction unbound at 5 h, 5 µM (in vitro): 0.856
- IC50 Shift (CYP3A4/5): no shift
- Mean Fold Induction (CYP1A2 [10]; 1 µM): 1.3 fold
- Mean Fold Induction (CYP1A2 [10]; 3 µM): 1.0 fold
- Mean Fold Induction (CYP1A2 [10]; 10 µM): 1.1 fold
- Mean Fold Induction (CYP1A2 [10]; 30 µM): 1.2 fold
- fold induction at 48 h, 1 µM (CYP1A2 [10]; Mean Fold Induction): 0.9
- fold induction at 48 h, 3 µM (CYP1A2 [10]; Mean Fold Induction): 0.9
- fold induction at 48 h, 10 µM (CYP1A2 [10]; Mean Fold Induction): 0.9
- fold induction at 48 h, 30 µM (CYP1A2 [10]; Mean Fold Induction): 0.8
